According to patent US20180222953A1, “SARCOMERE BIOSENSOR AND METHODS OF USE THEREOF” (REGENTS OF THE UNIVERSITY OF MINNESOTA, priority 2017, published 2018):
“Also recorded” adds a separate entry of the source.

Key:
[1] = system: isolated adult cardiac myocytes; experiment: Sarcomere length (SL) shortening in isolated Sarcometer Tg cardiac myocytes before and after treatment; format: cell-based, mouse; conditions: 0.2 Hz stimulation; for SL contractile amplitude: 37° C.
Description: Mice were injected with 0.25 cc 10,000U/ml heparin (McKesson cat#NDC 63739-964-25) and anesthetized 10 minutes later with 0.15 cc 50 mg/ml sodium pentobarbital (Vortech Pharmaceuticals). The heart was rapidly excised and placed in ice cold Krebs-Henseleit buffer (Sigma cat#K3753) modified with 25 mM HEPES (Sigma cat#H4034), 10 mM 2,3-Butanedione monoxime (Sigma cat#B0753), 30 mM Taurine (Sigma cat#T0625) and the aorta was cannulated. The mounted heart was placed on a perfusion system at 37° C. The heart was perfused with calcium free modified Krebs-Henseleit buffer with 2 mg/ml crudely purified collagenase for 10 minutes. The heart was then removed from the cannula, the atria were removed and the ventricles were dissected into pieces approximately 2 mm in diameter. The dissected ventricular tissue was then gently mechanically triturated in collagenase to liberate isolated myocytes. After brief low-speed centrifugation, isolated myocytes were resuspended in nominal calcium and 0.025 mg/ml bovine serum albumin (HyClone cat#SH30574.03) in a modified Kreb-Henseleit buffer. After the final trituration step, calcium was added back to the buffer step wise until reaching a final concentration of 2 mM CaCl2. Myocytes were plated on laminin-coated (ThermoFisher cat#23017015) glass coverslips in M199 media (Gibco cat#31100-035) containing 5% fetal bovine serum (HyClone cat#SH30071.03) and incubated for one hour at 37° C. with 5% CO2. After the one hour incubation, the media was changed to serum free M199 media and the myocytes were used for experiments within 5 hours.
(§1) For real-time simultaneous sarcomere length and biosensor measurements, a modified Ionoptix Calcium and Contractility system was used. Sarcomere length changes were detected at 240 Hz sampling rate and fluorescence measurements were detected at 1000 Hz sampling rate with two photomultipler tubes. Measurements were made at 37° C. and a stimulation frequency of 0.2 Hz unless specified otherwise. For biosensor measurements, a Xenon arc lamp was used and filtered with a 500/10 nm hard-coated bandpass filter before entering the microscope turret. The microscope turret featured a 505 dichroic long pass filter. Fluorescent light from the sample was shunted through microscope side port where it was split by a dichroic mirror with light above 650 nm going towards the Myocam for sarcomere length detection and light below 650 nm being further shunted to an additional filter cube. In this final filter cube, a 565 nm dichroic long pass mirror split the light again. Light with wavelengths below 565 nm corresponding to the Clover protein was further cleaned up by a 534/20 nm hard-coated bandpass filter before reaching the photomultiplier tuber and light with wavelengths above 565 nm was further cleaned up by a 592/43 nm hard-coated bandpass filter before reaching the photomultiplier tube. For calcium fluorescence measurements, the mouse myocytes were pre-loaded for 20 minutes in M199 solution containing 1 μM Fura-2 AM (ThermoFisher Cat #F1221), and a ten minute period was allowed for deesterification. For calcium fluorescence measurements the 360/380 nm ratio was determined. For each myocyte, several contractions were measured, averaged, and analyzed using the IonWizard software.
Eight to twelve week old mice of both sexes were injected with 0.25 cc 10,000U/ml heparin and anesthetized 10 minutes later with 0.15 cc 50 mg/ml sodium pentobarbital. The heart was rapidly excised and placed in ice cold Krebs-Henseleit buffer modified with 25 mM HEPES, 10 mM 2,3-Butanedione monoxime, 30 mM Taurine and the aorta was cannulated. The mounted heart was placed on a perfusion system at 37° C. The heart was perfused with calcium free modified Krebs-Henseleit buffer with 2 mg/ml crudely purified collagenase for 10 minutes. The heart was then removed from the cannula, the atria were removed and the ventricles were dissected into pieces approximately 2 mm in diameter. […]

[2] = system: sarcomere activation (Sarcometer cTnC biosensor) in live cardiac myocytes; experiment: Sarcometer Clover fluorescence (FRET) transient in live cardiac myocytes before and after treatment; format: cell-based, mouse; conditions: 0.2 Hz stimulation; for Sarcometer kinetics / Clover peak fluorescence intensity (Sarcometer amplitude): 37° C.
Description: as §1
Eight to twelve week old mice of both sexes were injected with 0.25 cc 10,000U/ml heparin and anesthetized 10 minutes later with 0.15 cc 50 mg/ml sodium pentobarbital. The heart was rapidly excised and placed in ice cold Krebs-Henseleit buffer modified with 25 mM HEPES, 10 mM 2,3-Butanedione monoxime, 30 mM Taurine and the aorta was cannulated. The mounted heart was placed on a perfusion system at 37° C. The heart was perfused with calcium free modified Krebs-Henseleit buffer with 2 mg/ml crudely purified collagenase for 10 minutes. The heart was then removed from the cannula, the atria were removed and the ventricles were dissected into pieces approximately 2 mm in diameter. The dissected ventricular tissue was then gently mechanically triturated in collagenase to liberate isolated myocytes. After brief low-speed centrifugation, isolated myocytes were resuspended in nominal calcium and 0.025 mg/ml bovine serum albumin in a modified Kreb-Henseleit buffer. After the final trituration step, calcium was added back to the buffer step wise until reaching a final concentration of 2 mM CaCl2. Myocytes were plated on laminin-coated (ThermoFisher cat#23017015) glass coverslips in M199 media (Gibco cat#31100-035) containing 5% fetal bovine serum and incubated for one hour at 37° C. with 5% CO2. After the one hour incubation, the media was changed to serum free M199 media and the myocytes were used for experiments within 5 hours.
For real-time simultaneous sarcomere length and Sarcometer biosensor measurements, a modified Ionoptix Calcium and Contractility system was used. Sarcomere length changes were detected at 240 Hz sampling rate and fluorescence measurements were detected at 1000 Hz sampling rate with two photomultipler tubes (FIG. 9). Measurements were made at 37° C. and a stimulation frequency of 0.2 Hz unless specified otherwise. For Sarcometer measurements, a Xenon arc lamp was used and filtered with a 500/10 nm hard-coated bandpass filter before entering the microscope turret. The microscope turret featured a 505 dichroic long pass filter. […]

[3] = system: cardiac myocyte calcium transients; experiment: Fura-2 AM calcium transients in single cardiac myocytes; format: cell-based, mouse; conditions: 10 μM, n=4 pairs
Description: For real-time simultaneous sarcomere length and biosensor measurements, a modified Ionoptix Calcium and Contractility system was used. Sarcomere length changes were detected at 240 Hz sampling rate and fluorescence measurements were detected at 1000 Hz sampling rate with two photomultipler tubes. Measurements were made at 37° C. and a stimulation frequency of 0.2 Hz unless specified otherwise. For biosensor measurements, a Xenon arc lamp was used and filtered with a 500/10 nm hard-coated bandpass filter before entering the microscope turret. The microscope turret featured a 505 dichroic long pass filter. […] For calcium fluorescence measurements, the mouse myocytes were pre-loaded for 20 minutes in M199 solution containing 1 μM Fura-2 AM (ThermoFisher Cat #F1221), and a ten minute period was allowed for deesterification. For calcium fluorescence measurements the 360/380 nm ratio was determined. For each myocyte, several contractions were measured, averaged, and analyzed using the IonWizard software.
For real-time simultaneous sarcomere length and Sarcometer biosensor measurements, a modified Ionoptix Calcium and Contractility system was used. Sarcomere length changes were detected at 240 Hz sampling rate and fluorescence measurements were detected at 1000 Hz sampling rate with two photomultipler tubes (FIG. 9). […] For calcium fluorescence measurements the 360/380 nm ratio was determined. […]

[4] = molecular target: TnC hydrophobic patch (Homo sapiens, UniProt P63316); conditions: binds directly to the TnC hydrophobic patch; Oleszczuk et al. 2010; cited from earlier work
[5] = 10 μM, before vs after treatment
[6] = 10 μM, before vs after treatment, listed as PNB

For `Cc1ccc2c(c1)C(=O)[C@]1(O)CCN(c3ccc([N+](=O)[O-])cc3)C1=N2` [para-Nitroblebbistatin], the SL contractile amplitude [1, 5] was “decreased contractile amplitude”, the SL contractile amplitude [1, 6] was “effectively blocked contraction” and the Sarcometer kinetics ([2]; 10 μM) was “no significant effect”. For the same compound, the “Clover peak fluorescence intensity (Sarcometer amplitude)” value (shortened to “Clover peak fluorescence intensity”) [2, 5] was “no difference in peak fluorescence intensity” and the “Clover peak fluorescence intensity” value [2, 6] was “no significant effect”.
With `CC(C)NCC(O)c1ccc(O)c(O)c1` (centres unmarked) [isoproterenol] the SL shortening amplitude ([1]; 50 nM, 30° C., before vs after treatment, n=34 pairs) was “increase myocyte contraction; also recorded: increased shortening amplitude”, the “sarcomere dynamics kinetics (SL relaxation)” value ([1]; 50 nM, 30° C., n=34 pairs) was “speed SL relaxation; also recorded: faster kinetics” and the “Clover fluorescence kinetics (transient decay rate)” value ([2]; 50 nM, 30° C., n=24 pairs) was “significantly faster; also recorded: faster kinetics”. For the same compound, the “peak Clover fluorescence intensity” value ([2]; 50 nM, 30° C., n=24 pairs) was “increased peak Clover fluorescence intensity”.
For `COC(=O)N1CCN(Cc2cccc(NC(=O)Nc3ccc(C)nc3)c2F)CC1` [Omecamtiv mecarbil], the SL contractile amplitude ([1]; 250 nM, n=14 pairs) was “increased contractile amplitude”, the SL contractile amplitude ([1]; 250 nM, n=14 pairs, listed as OM) was “significant increase SL amplitude” and the Sarcometer kinetics ([2]; 250 nM) was “no effect”. The “Clover peak fluorescence intensity” value ([2]; 250 nM, n=17 pairs) was “no difference in peak fluorescence intensity” and the “Clover peak fluorescence intensity” value ([2]; 250 nM, n=17 pairs, listed as OM) was “no effect”.
For `NCCCCCCNS(=O)(=O)c1cccc2c(Cl)cccc12` [W7, N-aminohexyl-5-chloro-1-naphthalenesulfonamide], the SL contractile amplitude [1, 5] was “reduced SL amplitude; also recorded: decreased contractile amplitude”, the “Clover peak fluorescence intensity” value [2, 5] was “significantly depressed; also recorded: decreased peak fluorescence intensity” and the “calcium transient amplitude or kinetics” value [3] was “unaltered; also recorded: no changes in calcium amplitude or kinetics”. The “decrease of TnI switch peptide binding” value [4] was 13 fold.
In the case of `COc1ccc(-c2nc3ccc(C4=NNC(=O)CC4C)cc3[nH]2)cc1` (centres unmarked) [Pimobendan], the SL contractile amplitude [1, 5] is reported as “increased SL amplitude; also recorded: increased contractile amplitude” and the “Clover peak fluorescence intensity” value [2, 5] is reported as “significant increase in Clover signal amplitude; also recorded: increased peak fluorescence intensity”.
